# Like-named read-outs stand apart in the source and are kept apart here.
# What was measured:
# Format in all cases: cell-based, human
# [1] = tested on: MDA-MB-231 breast cancer cells; assay: MTS cell viability assay, MDA-MB-231; conditions: read-out: EC50 (effective concentration that resulted in 50% cell viability)
# Description: (§1) Human breast (HCC38, MCF-7, MDA-MB-231, SK-BR-3, T-47D, and ZR-75-1), lung (A549 and H520), and prostate (DU145 and PC-3) cancer cell lines were obtained from American Culture Type Collection (ATCC). The HCC38, MCF-7, MDA-MB-231, SK-BR-3, T-47D, ZR-75-1, and A549 cells were grown in MEM supplemented with 10% FBS, 25 mM HEPES buffer (pH 7.4), penicillin (100 U/mL), and streptomycin (100 μg/mL). The H520, DU145, and PC-3 cell lines were grown in RPMI-1640 supplemented with 10% FBS, 25 mM HEPES buffer (pH 7.4), penicillin (100 U/mL), and streptomycin (100 μg/mL). All cell lines were maintained at 37° C. in a humidified, 5% CO2 atmosphere.
# (§2) Cells were cultured at a density of 2-3.5×10^3 cells per well in flat bottomed 96-well plates in 100 μL of complete growth medium and incubated for 2 days to reach ˜50% confluence. The cells were then treated with solvent or the appropriate drugs (CDDP stock was dissolved in 0.15 M NaCl, carboplatin stock was dissolved in 5% glucose, synthesized Pt(IV) complexes were dissolved in DMSO) for 1 hour, washed three times with 100 μL PBS, and incubated in 100 μL of fresh medium. After 2 days, the medium was replaced with 120 μL of medium containing CellTiter 96® Aqueous One Solution Reagent (MTS reagent) (Promega, Madison, Wis.). The cells were incubated at 37° C. for 4 hours and the cell viability was determined by measuring the absorbance at 490 nm using a Tecan Infinite M1000 microplate reader. The 48 h treatment was done in a similar manner, except the cells were not washed after treatment and the MTS reagent was immediately added. Viability of treated groups was calculated as a percent of control and graphed with GraphPad Prism.
# (§3) The anti-proliferative activities of Pt(IV) complexes were determined in two lung (A549 and H520), two prostate (DU145 and PC-3), and six breast (HCC38, MCF-7, MDA-MB-231, SK-BR-3, T-47D, and ZR-75-1) cancer cell lines. The cells were treated with increasing concentrations of cisplatin (CDDP), carboplatin, or the Pt(IV) complexes for 1 or 48 hours, and the viability was measured using an MTS colorimetric cell proliferation assay. Graphs of the results are shown for DU145 (FIG. 8A), PC-3 (FIG. 8B), SK-BR-3 (FIG. 8C), ZR-75-1 (FIG. 8D), A549 (FIG. 8E), and MCF-7 (FIG. 8F).
# [2] = tested on: DU145 prostate cancer cells; conditions: read-out: EC50 (effective concentration that resulted in 50% cell viability)
# Description: as §1, §2, §3
# (§4) The anti-proliferative activities of certain Pt(II) complexes were determined in DU145, PC-3, and SK-BR-3 cells. The cells were treated with increasing concentrations of cisplatin (CDDP) or the Pt(II) complexes for 1 or 48 hours, and the viability was measured using an MTS colorimetric cell proliferation assay.
# [3] = tested on: MCF-7 breast cancer cells; assay: MTS cell viability assay, MCF-7; conditions: read-out: EC50 (effective concentration that resulted in 50% cell viability)
# Description: as §1, §2, §3
# H520 lung cancer cells = assay: MTS cell viability assay, H520; conditions: read-out: EC50 (effective concentration that resulted in 50% cell viability)
# Description: as §1, §2, §3
# [4] = tested on: T-47D breast cancer cells; assay: MTS cell viability assay, T-47D
# Description: as §1, §2, §3
# [5] = tested on: SK-BR-3 breast cancer cells; assay: MTS cell viability assay, SK-BR-3; conditions: read-out: EC50 (effective concentration that resulted in 50% cell viability)
# Description: as §1, §2, §3, §4
# [6] = tested on: PC-3 prostate cancer cells; assay: MTS cell viability assay, PC-3; conditions: read-out: EC50 (effective concentration that resulted in 50% cell viability)
# Description: as §1, §2, §3, §4
# [7] = tested on: HCC38 breast cancer cells; assay: MTS cell viability assay, HCC38; conditions: read-out: EC50 (effective concentration that resulted in 50% cell viability)
# Description: as §1, §2, §3
# A549 lung cancer cells = assay: MTS cell viability assay, A549; conditions: read-out: EC50 (effective concentration that resulted in 50% cell viability)
# Description: as §1, §2, §3
# [8] = tested on: ZR-75-1 breast cancer cells; assay: MTS cell viability assay, ZR-75-1; conditions: read-out: EC50 (effective concentration that resulted in 50% cell viability)
# Description: as §1, §2, §3
# [9] = MDA-MB-231, 1 h treatment, Table 2
# [10] = MDA-MB-231, 48 h treatment, Table 4
# [11] = 1 h treatment, Table 2, read-out: EC50 (effective concentration that resulted in 50% cell viability)
# [12] = 48 h treatment, Table 4, read-out: EC50 (effective concentration that resulted in 50% cell viability)
# [13] = SK-BR-3, 1 h treatment, Table 2
# [14] = SK-BR-3, 48 h treatment, Table 4
# [15] = ZR-75-1, 1 h treatment, Table 2
# [16] = ZR-75-1, 48 h treatment, Table 4
Molecule,"EC50 [1, 9] [µM]","EC50 [1, 10] [µM]","EC50 ([2]; DU145, 1 h treatment, Table 2) [µM]","EC50 ([2]; DU145, 48 h treatment, Table 4) [µM]","EC50 ([3]; MCF-7, 1 h treatment, Table 2) [µM]","EC50 ([3]; MCF-7, 48 h treatment, Table 4) [µM]","EC50 (H520 lung cancer cells; H520, 1 h treatment, Table 2) [µM]","EC50 (H520 lung cancer cells; H520, 48 h treatment, Table 4) [µM]","EC50 [4, 11] [µM]","EC50 [4, 12] [µM]","EC50 [5, 13] [µM]","EC50 [5, 14] [µM]","EC50 ([6]; PC-3, 1 h treatment, Table 2) [µM]","EC50 ([6]; PC-3, 48 h treatment, Table 4) [µM]","EC50 ([7]; HCC38, 1 h treatment, Table 2) [µM]","EC50 ([7]; HCC38, 48 h treatment, Table 4) [µM]","EC50 (A549 lung cancer cells; A549, 1 h treatment, Table 2) [µM]","EC50 (A549 lung cancer cells; A549, 48 h treatment, Table 4) [µM]","EC50 [8, 15] [µM]","EC50 [8, 16] [µM]",other results
CCCCCCOc1ccnc(-c2cc(OCCCCCC)ccn2)c1.[Cl][Pt][Cl] [Pt(II)-6C],6 ± 3,4 ± 1,2.1 ± 0.1,1.9 ± 0.1,80 ± 30,12 ± 4,> 50,18 ± 1,3.2 ± 0.8,2.1 ± 0.2,1.84 ± 0.03,1.8,2.24 ± 0.03,2.7 ± 0.1,16 ± 5,14 ± 4,66 ± 16,19.1 ± 0.8,7 ± 2,6.4 ± 0.4,
COc1ccnc(-c2cc(OC)ccn2)c1.[Cl][Pt][Cl] [Pt(II)-1C],> 100,> 100,40 ± 10,24 ± 2,> 100,> 100,> 100,30 ± 2,20 ± 1,21 ± 1,19 ± 5,23 ± 2,> 100,40 ± 7,80 ± 20,57 ± 2,> 100,> 100,67 ± 27,26 ± 1,
"[Pt(IV)Cl2(OAc)2(4,4′-dihexyloxy-2,2′-bipyridine)] [Pt(IV)-6C]",,,,,,,,,,,,,,,,,,,,,"EC50 ([1]; MDA-MB-231, 1 h treatment, Table 3): 1.1 ± 0.2 µM; EC50 ([1]; MDA-MB-231, 48 h, Table 5): 0.31 ± 0.04 µM; EC50 ([2]; DU145, 1 h treatment, Table 3): 1.3 ± 0.2 µM; EC50 ([2]; DU145, 48 h, Table 5): 0.5 ± 0.3 µM; EC50 ([3]; MCF-7, 1 h treatment, Table 3): 2.4 ± 0.1 µM; EC50 ([3]; MCF-7, 48 h, Table 5): 1.6 ± 0.2 µM; EC50 (H520 lung cancer cells; H520, 1 h treatment, Table 3): 2.1 ± 0.2 µM; EC50 (H520 lung cancer cells; H520, 48 h, Table 5): 1 ± 0.4 µM; EC50 ([4]; 1 h treatment, Table 3, read-out: EC50 (effective concentration that resulted in 50% cell viability)): 2.1 ± 0.4 µM; EC50 ([4]; 48 h, Table 5, read-out: EC50 (effective concentration that resulted in 50% cell viability)): 0.24 ± 0.01 µM; EC50 ([5]; SK-BR-3, 1 h treatment, Table 3): 0.36 ± 0.02 µM; EC50 ([5]; SK-BR-3, 48 h, Table 5): 0.21 ± 0.03 µM; EC50 ([6]; PC-3, 1 h treatment, Table 3): 2 ± 0.3 µM; EC50 ([6]; PC-3, 48 h, Table 5): 0.33 ± 0.04 µM; EC50 ([7]; HCC38, 1 h treatment, Table 3): 2.3 ± 0.2 µM; EC50 ([7]; HCC38, 48 h, Table 5): 1.8 ± 0.5 µM; EC50 (A549 lung cancer cells; A549, 1 h treatment, Table 3): 2.5 ± 0.2 µM; EC50 (A549 lung cancer cells; A549, 48 h, Table 5): 2.2 ± 0.1 µM; EC50 ([8]; ZR-75-1, 1 h treatment, Table 3): 1.1 ± 0.4 µM; EC50 ([8]; ZR-75-1, 48 h, Table 5): 0.55 ± 0.04 µM"

# — patent publication US10316050B2, “PT (IV) complexes containing 4,4′-disubstituted-2,2′-bipyridyl and their use in cancer therapy” (THE BOARD OF REGENTS OF THE NEVADA SYSTEM OF HIGHER …, priority 2014, dated 2019)
